Laboratory results as given in patent US20220386606A1, “SPECIFICALLY SUBSTITUTED 3-PHENYL-5-SPIROCYCLOPENTYL-3-PYRROLIN-2-ONES AND THEIR USE AS HERBICIDES” (Bayer Aktiengesellschaft, priority 2019, published 2022).

Assays:
AMARE [1] = test: Post-emergence herbicidal action against AMARE; assay type: in vivo, Amaranthus retroflexus; settings: 80 g/ha, visual assessment about 3 weeks after treatment vs untreated controls
Method: (§1) Seeds of monocotyledonous and dicotyledonous weed and crop plants are laid out in sandy loam soil in wood-fiber pots, covered with soil and cultivated in a greenhouse under good growth conditions. 2 to 3 weeks after sowing, the test plants are treated at the one-leaf stage. The compounds of the invention, formulated in the form of wettable powders (WP) or as emulsion concentrates (EC), are then sprayed onto the green parts of the plants as aqueous suspension or emulsion at a water application rate equating to 600 to 800 l/ha with addition of 0.2% wetting agent. After the test plants have been left to stand in the greenhouse under optimal growth conditions for about 3 weeks, the action of the preparations is assessed visually in comparison to untreated controls (herbicidal action in percent (%): 100% activity=the plants have died, 0% activity=like control plants).

AMARE [2] = test: Pre-emergence herbicidal action against AMARE; assay type: in vivo, Amaranthus retroflexus; settings: 320 g/ha
In short: (§2)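 Scoring is visual, 3 weeks post-application, on a 0 to 100% scale relative to untreated controls (100% = plants died). Treatment is pre-emergence: aqueous suspensions or emulsions applied to the covering soil at 600 to 800 L/ha with 0.2% wetting agent.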

LOLRI [3] = test: Pre-emergence herbicidal action against LOLRI (Table 8, titled post-emergence at 320 g/ha); assay type: in vivo, Lolium rigidum; settings: table stands in the pre-emergence section
In short: as §2

ECHCG [4] = test: Post-emergence herbicidal action against ECHCG; assay type: in vivo, Echinochloa crus-galli; settings: 80 g/ha, visual assessment about 3 weeks after treatment vs untreated controls
In short: (§3)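 Greenhouse post-emergence test; one-leaf stage (2–3 wk post-sowing), sandy loam. Spray: WP/EC in water, 600–800 l/ha, 0.2% wetting agent, onto green parts. Visual rating ~3 wk later, % vs untreated (100% = dead, 0% = like control).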

VERPE [5] = test: Post-emergence herbicidal action against VERPE; assay type: in vivo, Veronica persica; settings: 80 g/ha, visual assessment about 3 weeks after treatment vs untreated controls
Method: as §1

ABUTH [6] = test: Post-emergence herbicidal action against ABUTH; assay type: in vivo, Abutylon threophrasti; settings: 80 g/ha, visual assessment about 3 weeks after treatment vs untreated controls
In short: as §3

VIOTR [7] = test: Pre-emergence herbicidal action against VIOTR; assay type: in vivo, Viola tricolor; settings: 320 g/ha
In short: as §2

LOLRI [8] = test: Post-emergence herbicidal action against LOLRI; assay type: in vivo, Lolium rigidum; settings: 80 g/ha, visual assessment about 3 weeks after treatment vs untreated controls
In short: as §3

ABUTH [9] = test: Pre-emergence herbicidal action against ABUTH; assay type: in vivo, Abutylon threophrasti; settings: 320 g/ha
In short: as §2

POLCO = test: Pre-emergence herbicidal action against POLCO; assay type: in vivo, Polygonum convolvulus; settings: 320 g/ha
In short: as §2

ECHCG [10] = test: Pre-emergence herbicidal action against ECHCG; assay type: in vivo, Echinochloa crus-galli; settings: 320 g/ha, scored visually after 3 weeks vs untreated controls
In short: as §2

AVEFA [11] = test: Post-emergence herbicidal action against AVEFA; assay type: in vivo, Avena fatua; settings: 80 g/ha, visual assessment after about 3 weeks
In short: as §3

SETVI [12] = test: Post-emergence herbicidal action against SETVI; assay type: in vivo, Setaria viridis; settings: 80 g/ha, visual assessment about 3 weeks after treatment vs untreated controls
In short: as §3

VERPE [13] = test: Pre-emergence herbicidal action against VERPE; assay type: in vivo, Veronica persica; settings: 320 g/ha
In short: as §2

SETVI [14] = test: Pre-emergence herbicidal action against SETVI; assay type: in vivo, Setaria viridis; settings: 320 g/ha, scored visually after 3 weeks vs untreated controls
In short: as §2

DIGSA [15] = test: Pre-emergence herbicidal action against DIGSA; assay type: in vivo, Digitaria sanguinalis; settings: 320 g/ha, scored visually after 3 weeks vs untreated controls
In short: as §2

DIGSA [16] = test: Post-emergence herbicidal action against DIGSA; assay type: in vivo, Digitaria sanguinalis; settings: 80 g/ha, visual assessment about 3 weeks after treatment vs untreated controls
In short: as §3

ALOMY [17] = test: Pre-emergence herbicidal action against ALOMY; assay type: in vivo, Alopecurus myosuroides; settings: 320 g/ha, scored visually after 3 weeks vs untreated controls
In short: as §2

MATIN = test: Pre-emergence herbicidal action against MATIN; assay type: in vivo; settings: 320 g/ha
In short: as §2

ALOMY [18] = test: Post-emergence herbicidal action against ALOMY; assay type: in vivo, Alopecurus myosuroides; settings: 80 g/ha, visual assessment after about 3 weeks
In short: as §3

AVEFA [19] = test: Pre-emergence herbicidal action against AVEFA; assay type: in vivo, Avena fatua; settings: 320 g/ha, scored visually after 3 weeks vs untreated controls
In short: as §2

VIOTR [20] = test: Post-emergence herbicidal action against VIOTR; assay type: in vivo, Viola tricolor; settings: 80 g/ha, visual assessment about 3 weeks after treatment vs untreated controls
Method: as §1

HORMU = test: Post-emergence herbicidal action against HORMU; assay type: in vivo, Hordeum murinum; settings: 80 g/ha, visual assessment about 3 weeks after treatment vs untreated controls
In short: as §3

Row | Compound | Pre-emergence action against AMARE in % (AMARE [2]) [%] | Pre-emergence herbicidal action against LOLRI in % (LOLRI [3]) [%] | Post-emergence action against ECHCG in % (ECHCG [4]) [%] | Post-emergence action against VERPE in % (VERPE [5]) [%] | Post-emergence action against ABUTH in % (ABUTH [6]) [%] | Pre-emergence action against VIOTR in % (VIOTR [7]) [%] | Post-emergence action against LOLRI in % (LOLRI [8]) [%] | Pre-emergence action against ABUTH in % (ABUTH [9]) [%] | Pre-emergence action against POLCO in % (POLCO) [%] | Pre-emergence action against ECHCG in % (ECHCG [10]) [%] | Post-emergence action against AVEFA in % (AVEFA [11]) [%] | Post-emergence action against SETVI in % (SETVI [12]) [%] | Pre-emergence action against VERPE in % (VERPE [13]) [%] | Pre-emergence action against SETVI in % (SETVI [14]) [%] | Pre-emergence action against DIGSA in % (DIGSA [15]) [%] | Post-emergence action against DIGSA in % (DIGSA [16]) [%] | Pre-emergence action against ALOMY in % (ALOMY [17]) [%] | Pre-emergence action against MATIN in % (MATIN) [%] | Post-emergence action against ALOMY in % (ALOMY [18]) [%] | Pre-emergence action against AVEFA in % (AVEFA [19]) [%] | other results
1 | CC#Cc1cc(C)c(C2=C(O)C3(CCC(COCC)C3)NC2=O)c(Cl)c1 (stereo not shown) [Example I-02] | 100 | 100 | 100 | 90 | 80 | 100 | 100 | 100 | 100 | 100 | 90 | 100 | 90 | 100 | 100 | 90 | 100 | 90 | 100 | 100 | Post-emergence action against AMARE in % (AMARE [1]): 80%
2 | CC#Cc1cc(C)c(C2=C(O)C3(CCC(COCC)C3)NC2=O)c(OC)c1 (stereo not shown) [Example I-32] |  | 100 | 100 | 80 | 80 | 100 | 100 |  |  | 100 | 100 |  |  | 100 | 100 | 100 | 100 |  | 100 | 90 | Post-emergence action against VIOTR in % (VIOTR [20]): 80%
3 | CC#Cc1cc(Cl)c(C2=C(OC(=O)OCC)C3(CCC(COCC)C3)NC2=O)c(CC)c1 (stereo not shown) [Example P-21] |  |  | 100 | 80 |  |  | 100 |  |  |  | 100 | 100 |  |  |  | 100 |  |  | 100 |  | Post-emergence action against HORMU in % (HORMU): 100%
4 | CC#Cc1cc(C)c(C2=C(OC(=O)OCC)C3(CCC(COCC)C3)NC2=O)c(Cl)c1 (stereo not shown) [Example P-28] | 100 | 100 | 100 | 80 |  | 100 | 100 | 90 | 80 | 100 | 90 | 100 | 100 | 100 | 100 | 100 | 100 | 90 | 100 | 100 | 
5 | CC#Cc1cc(C)c(C2=C(OC(=O)C(C)C)C3(CCC(COCC)C3)NC2=O)c(Cl)c1 (stereo not shown) [Example P-29] | 100 | 100 | 100 | 80 |  | 100 | 100 | 80 | 90 | 100 | 90 | 100 | 100 | 100 | 100 | 100 | 100 | 90 | 100 | 100 | 
6 | CC#Cc1cc(C)c(C2=C(OC(=O)OCC)C3(CCC(COC)C3)NC2=O)c(Br)c1 (stereo not shown) [Example P-30] | 100 | 100 | 100 | 80 | 80 | 100 | 100 | 80 | 80 | 100 | 90 | 100 | 80 | 100 | 100 | 100 | 100 |  | 100 | 100 | 
7 | CC#Cc1cc(C)c(C2=C(OC(=O)OCC)C3(CCC(COC)C3)NC2=O)c(F)c1 (stereo not shown) [Example P-52] | 80 | 100 | 100 | 80 | 80 | 90 | 100 |  | 80 | 100 | 90 |  |  | 100 | 100 | 100 | 100 |  | 100 | 90 | Post-emergence action against AMARE in % (AMARE [1]): 80%
